{"source": "patent US6534523B1", "about": "“Hepatitis C inhibitor tri-peptides” (Boehringer Ingelheim (Canada) Ltd., priority 1998, dated 2003)", "target": "HCV NS3 protease (UniProt P26663)", "sequence (P26663 1027-1206, other chains not shown)": "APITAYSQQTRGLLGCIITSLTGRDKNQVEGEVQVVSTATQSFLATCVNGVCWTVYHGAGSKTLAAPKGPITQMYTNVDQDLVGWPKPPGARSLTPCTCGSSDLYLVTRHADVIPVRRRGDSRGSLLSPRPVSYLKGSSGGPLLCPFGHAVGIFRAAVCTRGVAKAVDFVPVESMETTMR", "type": "biochemical, HCV genotype 1b", "design": "rows headed: IC50 (μM); IC50 (μM)", "conditions": "Table 6", "data": [{"smiles": "C=C[C@@H]1C[C@]1(NC(=O)[C@@H]1C[C@@H](Oc2cc(-c3ccccc3)nc3cc(OC)ccc23)CN1C(=O)[C@@H](NC(=O)OC(C)(C)C)C(C)C)C(=O)O", "note": "[compound 601]", "values": [{"measurement": "IC50", "result": 0.05, "unit": "µM"}]}]}
